Tests used:
[1] = tested on: α-tubulin acetylation; settings: published results; cited from earlier work
[2] = tested on: prostate cancer (LNCaP) cells; settings: via peroxiredoxin acetylation, published results; cited from earlier work
[3] = tested on: primary cortical neurons; assay: HCA-induced neurodegeneration assay (oxidative stress, glutathione depletion); assay type: cell-based; settings: at 0.5 μM; protection declined at higher concentrations due to neurotoxicity
Description: FIG. 1 contains bar graphs of % cell survival vs. concentration for HCA evaluation of II-ING-66 using the glutathione depletion neurotoxicity model of oxidative stress. Immature primary cortical neurons were treated with the test compound alone or in the presence of HCA. Cell viability was assessed at 24 h using the MTT assay. Bar plot represents percentage control mean±SEM of viable cells (n=3). *p<0.05 and **p<0.01 compared to control (DMSO) (n=3/group). HCA oxidative stress assay.
Compound II-ING-66 was examined in a model of oxidative stress induced by homocysteic acid (HCA), where neurons were treated with the test compound alone or in the presence of HCA.
It has been shown that HDAC6 inhibition protects against neuronal degeneration and stimulates neurite outgrowth in dorsal root ganglion neurons, therefore indicating methods of treating CNS diseases. Accordingly, present compounds were examined in a model of oxidative stress induced by homocysteic acid (HCA). This model leads to depletion of glutathione, the major intracellular antioxidant. HDAC6 inhibition rescues neuronal death in this model, possibly by causing hyperacetylation of peroxiredoxins. […] (A. P. Kozikowski et al., J. Med. Chem. 2007, 50, 3054-61.) […]

SMILES	Concentration inducing α-tubulin acetylation [1] [µM]	Concentration protecting from hydrogen peroxide-induced death [2] [µM]	Neuroprotection in HCA-induced neurodegeneration [3]
O=C(CCCCCCC(=O)Nc1ccc([C@H]2O[C@@H](CSc3nc(-c4ccccc4)c(-c4ccccc4)o3)C[C@@H](c3ccc(CO)cc3)O2)cc1)NO [Tubacin]	5	8	
CC(/C=C/C(=O)NO)=C\[C@@H](C)C(=O)c1ccc(N(C)C)cc1 [TSA, Trichostatin A]			moderately neuroprotective

— patent US10934255B2, “Nrf and HIF activators/HDAC inhibitors and therapeutic methods using the same” (THE BOARD OF TRUSTEES OF THE UNIVERSITY OF ILLINOIS, priority 2017, dated 2021)
